Entries after “also recorded” stand apart in the source; their conditions may differ.
What was measured:
Format in all cases: cell-based
[1] = system: HIV-1 LTR promoter; experiment: Activation of the HIV LTR in CEMss LTR-GFP reporter cells (GFP by flow cytometry)
Protocol: CEMss LTR-GFP cells were infected with NL43 and cultured in the presence of the BET antagonists JQ1(+) (1 μM) or the control enantiomer JQ1(−). GFP expression in cells was examined by flow cytometry. A representative of three experiments is shown. FIG. 2B provides a graph showing GFP expression in cells when cultured with different amounts of JQ1, as determined by flow cytometry. 0.25 μM of JQ1(+) was sufficient to dramatically increase the expression of GFP in NL43 infected CEMss LTR-GFP cells. FIGS. 2C and 2D show percentage of GFP expression (FIG. 2C) and mean fluorescence of GFP (MFI; FIG. 2D) in CEMss LTR-GFP cells cultured in the presence of JQ1(+) or JQ1(−) (1 μM), and different amount of HIV-1 Tat. FIG. 2E provides dot plots of CEMss LTR-GFP cells were cultured with increasing amounts of HIV Tat (0, 8, 16 or 32 μg/ml) in the presence of JQ1(+) or JQ1(−) (1 μM) for 1 day. Non-underlined numbers indicate percentage of GFP and underlined numbers indicate mean fluorescence of GFP (MFI).
(§1) GFP expression was measured by flow cytometry. FIGS. 3B and 3C shown the percentage of cells positive for GFP (FIG. 3B) and the mean MFI of GFP (FIG. 3C) in latently infected cell lines, J-Lat clones 82, A72, A7, A2, and A1, at 16 hours after TNFα or PHA was added in the cultures in the presence of JQ1(+) or JQ1(−). […] GFP expression in cells was measured by flow cytometry and is indicated as percent of GFP+ cells in gated live cell populations. An average of 5 experiments is shown. * p<0.05, ** p<0.01, *** p<0.001. […] Average of 3 experiments is shown. * p<0.05. For FIG. 3F, J-Lat A2 and A72 cells were reactivated with TNFα (20 ng/ml) or HIV Tat protein (50 μg/ml) in the presence of JQ1(+) or JQ1(−) for 16-18 hours, and GFP expression in cells was measured by flow cytometry. One representative experiment is shown. In each dot plot, non-underlined numbers indicate percentage of GFP+ cells and underlined numbers indicate mean fluorescence of GFP (MFI).
BET antagonists also drive activation of the HIV LTR. Specifically, the effects of JQ1 on transcription from the HIV LTR were tested. CEMss LTR-GFP cells (a reporter cell line stably transfected with GFP under the control of the HIV-1 LTR promoter) were infected with NL43 and cultured in the presence of BET antagonists or controls. GFP expression was measured at days 0, 1, 2, 3, and 6 post-infection. GFP expression was higher in the presence of the BET inhibitor (JQ1) compared to controls (FIG. 2A). Further, by varying the amount of JQ1, it was determined that 0.25 μM of JQ1(+) was sufficient to dramatically increase Tat-driven HIV-1 transcription (FIG. 2B). CEMss LTR-GFP cells were also cultured in the presence of JQ1(+) or JQ1(−) (1 μM) and different amount of HIV-1 Tat (0-32 μg/ml). […] FIG. 2E provides dot plots of the experiments.
(§2) Next, the effect of JQ1 on activation of the HIV LTR was tested using a latently infected Jurkat-derived cell clone, J-Lat clone A2. GFP expression in J-Lat clone A2 is induced upon reactivation with tumor necrosis factor-alpha (TNFα) or phytohaemagglutinin (PHA).

[2] = system: HIV LTR; experiment: Reactivation of the HIV LTR in latently infected J-Lat clones (GFP by flow cytometry)
Protocol: as §1, §2
To further study the mechanism of how JQ1 drives reactivation of HIV latency, HIV latently infected T-cell lines—J-Lat clones A1, A2, A7, and A72—were utilized. The effect of JQ1(+) on reactivation of HIV latency in these cell lines were confirmed. TNFα (20 ng/ml) or PHA (1.5 μg/ml) was added to cultures of J-Lat clones in the presence of 1 μM JQ1(+) or JQ1(−). After 16 hours, expression of GFP was measured by flow cytometry. […] In the presence of HIV Tat, BET antagonism enhances Tat-driven transcription of the HIV LTR in J-Lat clones A2 and A72 (FIG. 3F; underlined numbers indicate mean GFP fluorescence, non-underlined numbers indicate percent of GFP+ cells). […] Displacement of Brd4 from chromatin by JQ1(+) may cause conformational change in the chromatin, exposing NF-κb binding sites, leading to increased HIV transcription and reactivation of latency.

[3] = system: HIV-1 NL43, SG3 or SG3deltaVif; experiment: Reactivation in latently infected primary resting CD4 T-cells (p24 ELISA)
Protocol: A representative of three experiments is shown. […] AZT (100 μM) was added at day 1 after infection to prevent the spreading infection. The level of p24 in the media was measured by ELISA at day 3 (d3) and day 5 (d5) post-infection. The data shown are summarized for triplicate samples.
For FIG. 5A, primary resting CD4 T-cells were purified and spinoculated with HIV-1 NL43 or mock control. The infected cells were then cultured in the presence of 1 μM of JQ1(+) or JQ1(−). At day 3 after infection, IL-7 (20 ng/ml) was added in some of the cultures. Cells were counted and cell supernatants were collected at day 5 after infection. For FIG. 5B, primary CD4 T-cells were spinoculated with SG3 or SG3deltaVif and cultured in the presence of 1 μM of JQ1(+) or JQ1(−). AZT (100 μM) was added at day 1 after infection to prevent the spreading infection. IL7 (20 ng/ml) was added in some culture at day 3 after infection and the level of p24 in the media was measured by ELISA at day 3 and day 5 post-infection. The data shown are summarized with triplicates.

For `Cc1sc2c(c1C)C(c1ccc(Cl)cc1)=N[C@@H](CC(=O)OC(C)(C)C)c1nnc(C)n1-2` [JQ1(+), tert-butyl 2-((6S)-4-(4-chlorophenyl)-2,3,9-trimethyl-6H-thieno[3,2-f][1,2,4]triazolo[4,3-a][1,4]diazepin-6-yl)acetate], the GFP expression ([1]; CEMss LTR-GFP cells infected with NL43, 1 μM, compared to controls, days 0-6) was “higher”, the “TNFα-induced activation of the HIV LTR” value ([1]; CEMss LTR-GFP cells, 20 ng/ml TNFα, 1 μM, 1 day, absence of Tat) was “promotes” and the “Mean fluorescence intensities (MFI) of GFP” value ([1]; CEMss LTR-GFP cells, 1 μM, with 8, 16 or 32 μg/ml HIV-1 Tat) was “dramatically enhanced”. The “Amount sufficient to dramatically increase Tat-driven HIV-1 transcription (GFP expression)” value ([1]; NL43 infected CEMss LTR-GFP cells) was 0.25 µM, the “GFP expression (% positive cells and mean fluorescence intensity)” value ([2]; J-Lat clone A2, with TNFα or PHA, 0.5 μM, 16 hours, versus JQ1(−) control) was “higher” and the “Tat-driven transcription of the HIV LTR (GFP)” value ([2]; J-Lat clones A2 and A72, HIV Tat protein 50 μg/ml, 16-18 hours) was “enhances”. For the same compound, the “GFP expression with TNFα” value ([2]; J-Lat clones A72 and A2, TNFα 20 ng/ml plus compound 1 μM) was “dramatically enhanced”, the “Percent of cells expressing GFP” value ([2]; J-Lat clones, compound alone, 1 μM, 16-18 hours) was “increased” and the “Reactivation of the HIV LTR (p24 per million cells)” value ([3]; latently infected primary resting CD4 T-cells, NL43, 1 μM) was “drives the reactivation of the HIV LTR”. The “Reactivation of the HIV LTR (p24 in media)” value ([3]; wild-type SG3 latently infected primary CD4 T-cells, 1 μM, AZT 100 μM) was “drives reactivation of the HIV LTR; also recorded: drives the reactivation of the HIV LTR”.

Reference: patent US9387231B2, “Compositions comprising a Brd4 antagonist and methods for the treatment of HIV” (THE CHILDREN'S HOSPITAL OF PHILADELPHIA, priority 2011, dated 2016)
